From US20240207263A1, “SELECTIVE MODULATORS OF ATAXIA TELA[…] (ATM) KINASE AND USES THEREOF” (priority 2021, published 2024) come the findings set out here.

Experiment [1] has as its system phosp-KAP1 in MCF-7 cells. The experiment can be described thus: phosp-KAP1 MCF-7 cellular potency assay (Assay f). Type of experiment: cell-based. The following applies: Homo sapiens, MCF7; MCF-7 cells, etoposide; read-out: Etoposide MCF-7 cellular IC50. As for the experimental part: Assay f): phosp-KAP1 MCF-7 Cellular Potency
MCF-7 cells were seeded to a 384-well cell-culture plate, 25 μl/well which were incubated at 37° C. and 5% CO2 for 24 hr. Test compounds were added to the 384-well plates. Etoposide at final concentration of 100 μM was then added to each well except Vehicle control wells, which were incubated at 37° C. and 5% CO2 for 1 hour. After medium removal, cells were fixed by the addition of 25 μl/well of 8% paraformaldehyde in PBSA and incubated for 20 minutes at room temperature. After the plates were rinsed 3 times with PBSA, 50 ul permeabilization buffer (0.1% Triton X-100 in PBS) was added and the plates were incubated for 20 minutes at room temperature. After the plates were rinsed with PBSA, block the cells by adding 50 μl of Odyssey Blocking Buffer in 384-well plate and then incubate for 1.5 hours at room temperature. Remove blocking buffer by Plate washer (BioTek ELx405 select CW). […] The plates were rinsed 5 times with PBST (0.1% Tween-20 in PBS).
• 1) Fluorescence intensity (FI) was detected for each well. • 2) % inhibition is calculated as follow:
[formula] • FIpositive: The average FI for the positive controls across the plate. • FIvehicle: The average FI for negative controls across the plate. • 3) Calculate IC50 and Plot effect-dose curve of compounds: • Calculate IC50 by fitting % inhibition values and log of compound concentrations to nonlinear regression (dose response−variable slope) with Graphpad prism 6.0.
Y=Bottom+(Top−Bottom)/(1+10^((Log IC50−X)*HillSlope)) • X: log of compounds concentration; Y: % inhibition

The target in another experiment is ATM (Homo sapiens (Human), UniProt Q13315). The experiment is described as follows: biochemical. Type of experiment: biochemical. An excerpt: Assay a): ATM Biochemical Potency
Data was collected by Caliper.

Like-named read-outs stand apart in the source and are kept apart here.

ATM, sequence (Q13315 whole entry, looked up): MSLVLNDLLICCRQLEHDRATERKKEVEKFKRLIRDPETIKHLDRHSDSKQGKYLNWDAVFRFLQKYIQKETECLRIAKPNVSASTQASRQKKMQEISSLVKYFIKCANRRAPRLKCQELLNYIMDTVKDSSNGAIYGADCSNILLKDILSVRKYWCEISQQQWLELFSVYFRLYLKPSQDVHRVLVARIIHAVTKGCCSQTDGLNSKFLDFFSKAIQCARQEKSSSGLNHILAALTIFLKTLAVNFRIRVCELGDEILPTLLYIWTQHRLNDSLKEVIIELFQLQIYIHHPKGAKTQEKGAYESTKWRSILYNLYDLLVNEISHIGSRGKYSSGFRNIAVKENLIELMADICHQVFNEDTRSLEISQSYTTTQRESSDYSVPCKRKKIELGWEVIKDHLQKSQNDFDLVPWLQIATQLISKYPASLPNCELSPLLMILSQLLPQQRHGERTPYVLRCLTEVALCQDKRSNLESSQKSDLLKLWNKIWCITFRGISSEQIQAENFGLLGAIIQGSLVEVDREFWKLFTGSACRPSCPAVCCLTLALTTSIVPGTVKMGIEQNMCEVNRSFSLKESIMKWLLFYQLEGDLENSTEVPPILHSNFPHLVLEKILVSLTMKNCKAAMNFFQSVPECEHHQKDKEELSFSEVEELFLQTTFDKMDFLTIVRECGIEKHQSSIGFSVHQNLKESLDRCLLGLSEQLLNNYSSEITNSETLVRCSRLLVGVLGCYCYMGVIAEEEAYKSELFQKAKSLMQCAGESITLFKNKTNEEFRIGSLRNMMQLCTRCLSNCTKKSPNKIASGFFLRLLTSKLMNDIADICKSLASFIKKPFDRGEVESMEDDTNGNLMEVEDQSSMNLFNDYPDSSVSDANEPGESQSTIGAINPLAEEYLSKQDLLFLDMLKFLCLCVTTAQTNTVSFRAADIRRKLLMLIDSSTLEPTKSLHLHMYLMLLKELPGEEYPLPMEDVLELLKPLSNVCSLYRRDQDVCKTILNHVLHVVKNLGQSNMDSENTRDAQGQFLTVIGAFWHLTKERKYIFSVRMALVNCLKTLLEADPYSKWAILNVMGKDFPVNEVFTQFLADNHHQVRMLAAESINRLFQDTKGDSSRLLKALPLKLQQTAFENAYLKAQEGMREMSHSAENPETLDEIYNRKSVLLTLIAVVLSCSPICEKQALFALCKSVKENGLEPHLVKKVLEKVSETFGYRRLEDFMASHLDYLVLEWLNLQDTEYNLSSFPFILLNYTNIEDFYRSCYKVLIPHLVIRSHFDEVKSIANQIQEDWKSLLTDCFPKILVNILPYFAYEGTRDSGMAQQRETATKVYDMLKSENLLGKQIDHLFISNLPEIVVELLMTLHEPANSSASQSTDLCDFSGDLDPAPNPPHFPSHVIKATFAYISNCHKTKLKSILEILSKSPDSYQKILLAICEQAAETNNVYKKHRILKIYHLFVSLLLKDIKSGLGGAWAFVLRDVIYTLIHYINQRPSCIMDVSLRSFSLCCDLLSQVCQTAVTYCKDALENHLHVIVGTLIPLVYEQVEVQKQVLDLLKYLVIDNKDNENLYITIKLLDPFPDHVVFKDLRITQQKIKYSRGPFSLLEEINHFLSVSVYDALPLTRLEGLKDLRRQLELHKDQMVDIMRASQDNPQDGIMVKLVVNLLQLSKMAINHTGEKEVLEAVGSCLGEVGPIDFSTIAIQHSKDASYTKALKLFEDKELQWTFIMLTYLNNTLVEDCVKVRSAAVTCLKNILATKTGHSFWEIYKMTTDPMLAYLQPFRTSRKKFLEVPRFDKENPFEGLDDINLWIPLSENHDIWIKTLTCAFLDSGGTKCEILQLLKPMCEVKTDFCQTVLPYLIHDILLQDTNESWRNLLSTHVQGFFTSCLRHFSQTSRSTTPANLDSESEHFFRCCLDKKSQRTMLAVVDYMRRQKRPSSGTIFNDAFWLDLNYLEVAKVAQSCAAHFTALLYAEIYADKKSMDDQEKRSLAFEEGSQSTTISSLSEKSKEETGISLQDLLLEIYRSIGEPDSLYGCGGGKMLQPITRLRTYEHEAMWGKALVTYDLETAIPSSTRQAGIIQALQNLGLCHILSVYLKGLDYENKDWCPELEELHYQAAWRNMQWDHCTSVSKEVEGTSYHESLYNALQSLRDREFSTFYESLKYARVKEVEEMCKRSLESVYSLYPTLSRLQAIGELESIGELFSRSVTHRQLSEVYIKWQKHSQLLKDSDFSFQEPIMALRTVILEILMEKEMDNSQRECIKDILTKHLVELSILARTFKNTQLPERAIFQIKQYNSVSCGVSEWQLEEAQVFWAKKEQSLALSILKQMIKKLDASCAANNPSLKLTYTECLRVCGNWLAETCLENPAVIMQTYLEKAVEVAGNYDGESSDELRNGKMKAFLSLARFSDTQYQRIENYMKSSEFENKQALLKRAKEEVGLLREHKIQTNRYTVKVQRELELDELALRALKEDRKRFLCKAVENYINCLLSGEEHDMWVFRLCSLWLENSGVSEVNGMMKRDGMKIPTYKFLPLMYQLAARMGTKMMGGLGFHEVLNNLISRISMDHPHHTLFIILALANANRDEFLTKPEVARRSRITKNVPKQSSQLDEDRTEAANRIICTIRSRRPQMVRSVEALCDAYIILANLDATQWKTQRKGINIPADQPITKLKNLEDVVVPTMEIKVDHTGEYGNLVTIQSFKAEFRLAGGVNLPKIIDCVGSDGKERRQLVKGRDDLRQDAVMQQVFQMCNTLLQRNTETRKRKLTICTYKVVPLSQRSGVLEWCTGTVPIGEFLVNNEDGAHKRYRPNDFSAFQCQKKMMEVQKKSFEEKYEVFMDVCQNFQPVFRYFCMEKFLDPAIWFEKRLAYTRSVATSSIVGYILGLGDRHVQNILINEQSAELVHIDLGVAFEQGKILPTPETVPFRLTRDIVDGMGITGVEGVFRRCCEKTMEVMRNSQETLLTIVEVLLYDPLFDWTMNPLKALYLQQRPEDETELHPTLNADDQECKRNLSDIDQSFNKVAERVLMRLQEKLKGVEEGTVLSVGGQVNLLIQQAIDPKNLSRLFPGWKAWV

As usually defined, the IC50 is the concentration that inhibits the measured activity by half. As to `CC(C)n1c(=O)n(C)c2nnc3ccc(-c4ccc([C@@H](C)OCCN5CCC6(COC6)C5)nc4)cc3c21` [Example 86, (R)-8-(6-(1-(2-(2-oxa-6-azaspiro[3.4]octan-6-yl)ethoxy)ethyl)pyridin-3-yl)-1-isopropyl-3-methyl-1H-imidazo[4,5-c]cinnolin-2(3H)-one], the IC50 came out at 12 nM in experiment [1] and 3.6 nM at ATM (read-out: ATM IC50).
In the same order, the values of `CC(C)n1c(=O)n(C)c2nnc3ccc(-c4ccc([C@@H](C)OCCN5CCC6(CC5)CC6)nc4)cc3c21` [Example 55, (R)-8-(6-(1-(2-(6-azaspiro[2.5]octan-6-yl)ethoxy)ethyl)pyridin-3-yl)-1-isopropyl-3-methyl-1H-imidazo[4,5-c]cinnolin-2(3H)-one] are 11 nM and 3.2 nM.
In the same order, the values of `CC(C)n1c(=O)n(C)c2nnc3cc(F)c(-c4ccc([C@@H](C)OCCN5CCC(OC(F)(F)F)CC5)nc4)cc3c21` [Example 144, (R)-7-fluoro-1-isopropyl-3-methyl-8-(6-(1-(2-(4-(trifluoromethoxy)piperidin-1-yl)ethoxy)ethyl)pyridin-3-yl)-1H-imidazo[4,5-c]cinnolin-2(3H)-one] are 47 nM and 2.9 nM.
On to `Cn1c(=O)n(C2CCOCC2)c2c3cc(-c4ccc(COCCN5CCC(C)(C)C5)nc4)ccc3nnc21` [Example 97, 8-(6-((2-(3,3-dimethylpyrrolidin-1-yl)ethoxy)methyl)pyridin-3-yl)-3-methyl-1-(tetrahydro-2H-pyran-4-yl)-1H-imidazo[4,5-c]cinnolin-2(3H)-one], for which the IC50 in experiment [1] was found to be 43 nM; at ATM (read-out: ATM IC50), 14 nM.
On the same counts, the results for `CC(C)n1c(=O)n(C)c2nnc3cc(F)c(-c4ccc([C@@H](C)OCCN5CCC(C)(C)C5)nc4)cc3c21` [Example 137, (R)-8-(6-(1-(2-(3,3-dimethylpyrrolidin-1-yl)ethoxy)ethyl)pyridin-3-yl)-7-fluoro-1-isopropyl-3-methyl-1H-imidazo[4,5-c]cinnolin-2(3H)-one] are 22 nM and 6.3 nM.
`CC(C)n1c(=O)n(C)c2nnc3ccc(-c4ccc([C@@H](C)OCCN5CCC(OC(F)F)C5)nc4)cc3c21` (stereo partly drawn) [Example 54, 8-(6-((1R)-1-(2-(3-(difluoromethoxy)pyrrolidin-1-yl)ethoxy)ethyl)pyridin-3-yl)-1-isopropyl-3-methyl-1H-imidazo[4,5-c]cinnolin-2(3H)-one]: the IC50 in experiment [1] was determined as 17 nM.
For the compound `CC(C)n1c(=O)n(C)c2nnc3cc(F)c(-c4ccc([C@@H](C)OCCN5CCC6(CC5)CC6)nc4)cc3c21` [Example 140, (R)-8-(6-(1-(2-(6-azaspiro[2.5]octan-6-yl)ethoxy)ethyl)pyridin-3-yl)-7-fluoro-1-isopropyl-3-methyl-1H-imidazo[4,5-c]cinnolin-2(3H)-one], the IC50 is 14 nM in experiment [1] and 2.8 nM at ATM (read-out: ATM IC50).
In the case of `CO[C@H]1CCN(CCO[C@H](C)c2ccc(-c3ccc4nnc5c(c4c3)n(C3CCOCC3)c(=O)n5C)cn2)C1` [Example 105, 8-(6-((R)-1-(2-((S)-3-methoxypyrrolidin-1-yl)ethoxy)ethyl)pyridin-3-yl)-3-methyl-1-(tetrahydro-2H-pyran-4-yl)-1H-imidazo[4,5-c]cinnolin-2(3H)-one], the IC50 in experiment [1] came out at 36 nM.
Turning to `CO[C@H]1C[C@@H](n2c(=O)n(C)c3nnc4ccc(-c5ccc(COCCN6CCC(F)CC6)nc5)cc4c32)C1` [Example 174, 8-(6-((2-(4-fluoropiperidin-1-yl)ethoxy)methyl)pyridin-3-yl)-1-(cis-3-methoxycyclobutyl)-3-methyl-1H-imidazo[4,5-c]cinnolin-2(3H)-one], the IC50 in experiment [1] turned out to be 26 nM; on ATM (read-out: ATM IC50), 28 nM.
In the same order, the values of `CO[C@H]1CCN(CCO[C@H](C)c2ccc(-c3ccc4nnc5c(c4c3)n(C(C)C)c(=O)n5C)cn2)C1` [Example 59, 1-isopropyl-8-(6-((R)-1-(2-((S)-3-methoxypyrrolidin-1-yl)ethoxy)ethyl)pyridin-3-yl)-3-methyl-1H-imidazo[4,5-c]cinnolin-2(3H)-one] are 65 nM and 8.3 nM.
Regarding `CC(C)n1c(=O)n(C)c2nnc3ccc(-c4ccc(COCCN5CCC(C#N)CC5)nc4)cc3c21` [Example 24, 1-(2-((5-(1-isopropyl-3-methyl-2-oxo-2,3-dihydro-1H-imidazo[4,5-c]cinnolin-8-yl)pyridin-2-yl)methoxy)ethyl)pyiperidine-4-carbonitrile], the IC50 on ATM (read-out: ATM IC50) worked out at 26 nM.
On the same count and under the same terms, the figure for `C[C@@H](OCCN1CCC(OC(F)(F)F)CC1)c1ccc(-c2ccc3nnc4c(c3c2)n(C2CCOCC2)c(=O)n4C)cn1` [Example 109, (R)-3-methyl-1-(tetrahydro-2H-pyran-4-yl)-8-(6-(1-(2-(4-(trifluoromethoxy)piperidin-1-yl)ethoxy)ethyl)pyridin-3-yl)-1H-imidazo[4,5-c]cinnolin-2(3H)-one] is 2.1 nM.
Same read-out and setting: with `CC(C)n1c(=O)n(C)c2nnc3ccc(-c4ccc(COCCN5CC[C@H](OC(F)F)C5)nc4)cc3c21` [Example 51, (S)-8-(6-((2-(3-(difluoromethoxy)pyrrolidin-1-yl)ethoxy)methyl)pyridin-3-yl)-1-isopropyl-3-methyl-1H-imidazo[4,5-c]cinnolin-2(3H)-one] the figure was 7.6 nM; with `CC(OCCN1CC2C(C1)C2(F)F)c1ccc(-c2ccc3nnc4c(c3c2)n(C(C)C)c(=O)n4C)cn1` (stereo in doubt) [Example 70, 8-(6-((1S)-1-(2-(6,6-difluoro-3-azabicyclo[3.1.0]hexan-3-yl)ethoxy)ethyl)pyridin-3-yl)-1-isopropyl-3-methyl-1H-imidazo[4,5-c]cinnolin-2(3H)-one], 295 nM; with `CCCC(OCCN1CCCC1)c1ccc(-c2ccc3nnc4c(c3c2)n(C(C)C)c(=O)n4C)cn1` (centres unmarked) [Example 220, 1-isopropyl-3-methyl-8-(6-(1-(2-(pyrrolidin-1-yl)ethoxy)butyl)pyridin-3-yl)-1H-imidazo[4,5-c]cinnolin-2(3H)-one], 147 nM.
For `CO[C@H]1C[C@H](n2c(=O)n(C)c3nnc4ccc(-c5ccc(COCCN6CCC7(CC7)C6)nc5)cc4c32)C1` [Example 159, 8-(6-((2-(5-azaspiro[2.4]heptan-5-yl)ethoxy)methyl)pyridin-3-yl)-1-(trans-3-methoxycyclobutyl)-3-methyl-1H-imidazo[4,5-c]cinnolin-2(3H)-one], the IC50 against ATM came out at 20.6 nM.
Take `CC(C)n1c(=O)n(C)c2nnc3ccc(-c4ccc(COCCN5CCC(C#N)C5)nc4)cc3c21` (centres unmarked) [Example 25]: at ATM (read-out: ATM IC50), the IC50 amounted to 71 nM.
Same read-out and setting: with `CC(C)n1c(=O)n(C)c2nnc3ccc(-c4ccc(COCCN5CC6CCC5C6)nc4)cc3c21` (centres unmarked) [Example 39, 8-(6-((2-(2-azabicyclo[2.2.1]heptan-2-yl)ethoxy)methyl)pyridin-3-yl)-1-isopropyl-3-methyl-1H-imidazo[4,5-c]cinnolin-2(3H)-one] the figure was 73 nM; with `C[C@@H](OCCN1CCC2(CCO2)CC1)c1ccc(-c2ccc3nnc4c(c3c2)n(C2CCOCC2)c(=O)n4C)cn1` [Example 125, (R)-8-(6-(1-(2-(1-oxa-7-azaspiro[3.5]nonan-7-yl)ethoxy)ethyl)pyridin-3-yl)-3-methyl-1-(tetrahydro-2H-pyran-4-yl)-1H-imidazo[4,5-c]cinnolin-2(3H)-one], 6.3 nM; with `Cn1c(=O)n([C@H]2CCCOC2)c2c3cc(-c4ccc(COCCN5CCC(F)CC5)nc4)ccc3nnc21` [Example 182, (S)-8-(6-((2-(4-fluoropiperidin-1-yl)ethoxy)methyl)pyridin-3-yl)-3-methyl-1-(tetrahydro-2H-pyran-3-yl)-1H-imidazo[4,5-c]cinnolin-2(3H)-one], 21 nM.
On the same count and under the same terms, the figure for `C[C@@H](OCCN1CCC2(CCC2)CC1)c1ccc(-c2cc3c(cc2F)nnc2c3n(C3CCOCC3)c(=O)n2C)cn1` [Example 156, (R)-8-(6-(1-(2-(7-azaspiro[3.5]nonan-7-yl)ethoxy)ethyl)pyridin-3-yl)-7-fluoro-3-methyl-1-(tetrahydro-2H-pyran-4-yl)-1H-imidazo[4,5-c]cinnolin-2(3H)-one] is 6 nM; for `CC(C)n1c(=O)n(C)c2nnc3ccc(-c4ccc(COCCN5CCC(F)(F)CC5)nc4)cc3c21` [Example 30, 8-(6-((2-(4,4-difluoropiperidin-1-yl)ethoxy)methyl)pyridin-3-yl)-1-isopropyl-3-methyl-1H-imidazo[4,5-c]cinnolin-2(3H)-one] it is 62 nM.
Same read-out and setting: with `C[C@@H](OCCN1CCC(F)CC1)c1ccc(-c2ccc3nnc4c(c3c2)n(C2CCOCC2)c(=O)n4C)cn1` [Example 108] the figure was 3.7 nM.
Turning to `CO[C@H]1C[C@@H](n2c(=O)n(C)c3nnc4ccc(-c5ccc(COCCN(C)C)nc5)cc4c32)C1` [Example 176, 8-(6-((2-(dimethylamino)ethoxy)methyl)pyridin-3-yl)-1-(cis-3-methoxycyclobutyl)-3-methyl-1H-imidazo[4,5-c]cinnolin-2(3H)-one], at ATM (read-out: ATM IC50), the half-inhibitory concentration (IC50) was found to be 65 nM.
